Laboratory results from patent US20030096850A1, “Treating infections by administration of oxazolidinones” (priority 2001, published 2003).

Legend:
[1] = Human who has acne treated with an Oxazolidinone ointment; assay type: in vivo; settings: person, ointment 30 mg/ml twice daily on skin
Staphylococcal aureus = experiment: Human treated with Oxazolidinone cream or ointment prior to surgery; assay type: in vivo; settings: cream or ointment 10-30 mg/ml, evening prior to and morning of surgery
Description: (§1) A 75 kilo […] is being prepared for surgery; the types of surgeries include open-heart surgery, joint replacement, back surgery, or any type of invasive surgery. A cream or ointment preparation of 10-30 mg/ml (S)-N-[[3-[3-fluoro-4-(4-morpholinyl)phenyl]-2-oxo-5-oxazolidinyl]methyl]acetamide is liberally spread by a nurse wearing gloves upon the intended site of the incision and an area of 8 inches around the margins of the intended incision site the evening prior to surgery and the first thing in the morning of the surgery. The area of application is kept free of clothing until the cream or ointment is absorbed.

[2] = test system: Staphylococcal epidermidis; experiment: as above; assay type: in vivo; settings: cream or ointment 10-30 mg/ml, evening prior to and morning of surgery
Description: as §1

[3] = Human who has an ear infection (otitis media) treated with Oxazolidinone solution; assay type: in vivo; settings: child, ten drops of 10 mg/ml solution into the ear twice daily, before 10 days
Description: Ten drops of a solution containing 10 mg/ml of (S)-N-[[3-[3-fluoro-4-(4-morpholinyl)phenyl]-2-oxo-5-oxazolidinyl]methyl]acetamide is dropped into the ear twice daily for ten days with an eye dropper and is immediately followed by closing the outer ear canal with cotton.

[4] = Treatment of diabetic foot with cream or ointment; assay type: in vivo, human; settings: cream or ointment 10-30 mg/ml three times daily for 10-14 days
Description: A 70 kilo […] with a history of diabetes and infected foot ulcerations, also known as diabetic foot, is treated with a cream or ointment preparation of 10-30 mg/ml (S)-N-[[3-[3-fluoro-4-(4-morpholinyl)phenyl]-2-oxo-5-oxazolidinyl]methyl]acetamide. The cream or ointment is liberally spread over the exposed surface of the ulcerations and adjacent whole skin three times daily for 10-14 days.

## CC(=O)NC[C@H]1CN(c2ccc(N3CCN(C(=O)CO)CC3)c(F)c2)C(=O)O1 [Example 1, (S)-N-[[3-[3-Fluoro-4-[4-(hydroxyacetyl)-1-piperazinyl]-phenyl]-2-oxo-5-oxazolidinyl]methyl]acetamide]
[1]
  reddened and swollen pustules after administration: greatly reduced

## CC(=O)NC[C@H]1CN(c2ccc(N3CCOCC3)c(F)c2)C(=O)O1 [Example 2, (S)-N-[[3-[3-Fluoro-4-(4-morpholinyl)phenyl]-2-oxo-5-oxazolidinyl]methyl]acetamide]
Staphylococcal aureus
  skin commensal pathogen Staphylococcal aureus throughout the full thickness of the skin at the incision site: killed or are prevented from growing
[2]
  skin commensal pathogen Staphylococcal epidermidis throughout the full thickness of the skin at the incision site: killed or are prevented from growing
[3]
  fever and ear pain: the fever is down and the pain is gone
[4]
  tissue destruction and repair in the ulcerated area: tissue destruction in the ulcerated area has visibly ceased and tissue repair has begun
